Experimental data taken from patent publication US20250195521A1 (Revolution Medicines, Inc., priority 2020, published 2025).
Like-named read-outs stand apart in the source and are kept apart here.

Test system: K-Ras G12C (NCI-H358 cells)
Test: Potency assay: pERK in NCI-H358 cells
Format: cell-based, human
Details: read-out: pERK EC50 (H358 KRAS G12C)
Experimental: The purpose of this assay is to measure the ability of test compounds to inhibit K-Ras in cells. […] This procedure measures a decrease in cellular pERK in response to test compounds. The procedure described below in NCI-H358 cells is applicable to K-Ras G12C.
Note: This protocol may be executed substituting other cell lines to characterize inhibitors of other RAS variants, including, for example, AsPC-1 (K-Ras G12D), Capan-1 (K-Ras G12V), or NCI-H1355 (K-Ras G13C).
NCI-H358 cells were grown and maintained using media and procedures recommended by the ATCC. On the day prior to compound addition, cells were plated in 384-well cell culture plates (40 μl/well) and grown overnight in a 37° C., 5% CO2 incubator. Test compounds were prepared in 10, 3-fold dilutions in DMSO, with a high concentration of 10 mM. On the day of assay, 40 nL of test compound was added to each well of cell culture plate using an Echo550 liquid handler (LabCyte®). Concentrations of test compound were tested in duplicate. After compound addition, cells were incubated 4 hours at 37° C., 5% CO2. Following incubation, culture medium was removed and cells were washed once with phosphate buffered saline.
In some experiments, cellular pERK level was determined using the AlphaLISA SureFire Ultra p-ERK1/2 Assay Kit (PerkinElmer). Cells were lysed in 25 μL lysis buffer, with shaking at 600 RPM at room temperature. […] After a 2-hour incubation in the dark, 5 μL donor mix was added, plate was sealed, and incubated 2 hours at room temperature. Signal was read on an Envision plate reader (PerkinElmer) using standard AlphaLISA settings. Analysis of raw data was carried out in Excel (Microsoft) and Prism (GraphPad). Signal was plotted vs. the decadal logarithm of compound concentration, and IC50 was determined by fitting a 4-parameter sigmoidal concentration response model.
In other experiments, cellular pERK was determined by In-Cell Western. […] Fixed cells were washed 4 times for 5 minutes with TBS containing 0.1% Triton X-100 (TBST) and then blocked with 100 μL Odyssey blocking buffer (LI-COR) for 60 minutes at room temperature. Primary antibody (PERK, CST-4370, Cell Signaling Technology) was diluted 1:200 in blocking buffer, and 50 μL was added to each well and incubated overnight at 4° C. Cells were washed 4 times for 5 minutes with TBST. Secondary antibody (IR-800CW rabbit, LI-COR, diluted 1:800) and DNA stain DRAQ5 (LI-COR, diluted 1:2000) were added and incubated 1-2 hours at room temperature. Cells were washed 4 times for 5 minutes with TBST. Plates were scanned on a Li—COR Odyssey CLx Imager. Analysis of raw data was carried out in Excel (Microsoft) and Prism (GraphPad). Signal was plotted vs. the decadal logarithm of compound concentration, and IC50 was determined by fitting a 4-parameter sigmoidal concentration response model.

[1] = Homo sapiens, NCI-H358 cells, 4 hours

Row | EC50 [1] [µM] | SMILES | other results
1 | < 5 | CCn1c(-c2cccnc2[C@H](C)OC)c2c3cc(ccc31)-c1cc(O)cc(c1)C[C@H](NC(=O)[C@H](C(C)C)N(C)C(=O)[C@H]1CCC[C@H]1N)C(=O)N1CCC[C@H](N1)C(=O)OCC(C)(C)C2 (atropisomer, axis not shown) [Compound A131] | –
2 | < 5 | CCn1c(-c2cccnc2[C@H](C)OC)c2c3cc(ccc31)-c1csc(n1)C[C@H](NC(=O)[C@H](C(C)C)N(C)C(=O)N1CC(C(C)(C)OC)C1)C(=O)N1CCC[C@H](N1)C(=O)OCC(C)(C)C2 (atropisomer, axis not shown) [Compound A614] | –
3 | – | C=CC(=O)N1CC[C@H](C(=O)N(C)[C@H](C(=O)N[C@H]2Cc3cc(cc(O)c3F)-c3ccc4c(c3)c(c(-c3c(CCOC)cccc3OC)n4CC)CC(C)(C)COC(=O)[C@@H]3CCCN(N3)C2=O)C(C)C)C1 [Compound A9] | EC50 (Homo sapiens, NCI-H358, 4 h): < 5 µM
4 | < 5 | CCn1c(-c2cnccc2COC)c2c3cc(ccc31)-c1cc(O)cc(c1)C[C@H](NC(=O)[C@H](C(C)C)N(C)C(=O)[C@H]1CCNC1)C(=O)N1CCC[C@H](N1)C(=O)OCC(C)(C)C2 [Compound A10] | –
5 | – | CCn1c(-c2cnccc2COC)c2c3cc(ccc31)-c1cc(O)cc(c1)C[C@H](NC(=O)[C@H](C(C)C)N(C)C(=O)[C@H]1CCN(C(=O)OC)C1)C(=O)N1CCC[C@H](N1)C(=O)OCC(C)(C)C2 [Compound A11, methyl (3S)-3-{[(1S)-1-{[(8S,14S)-22-ethyl-4-hydroxy-21-[4-(methoxymethyl)pyridin-3-yl]-18,18-dimethyl-9,15-dioxo-16-oxa-10,22,28-triazapentacyclo [18.5.2.1^2,6.1^10,14.0^23,27]nonacosa-1 (26),2,4,6 (29),20,23 (27),24-heptaen-8-yl]carbamoyl}-2-methylpropyl](methyl)carbamoyl}pyrrolidine-1-carboxylate] | EC50 (Homo sapiens, NCI-H358, 4 h): < 5 µM
6 | < 5 | C=CC(=O)N1CC[C@H](C(=O)N(C)[C@H](C(=O)N[C@H]2Cc3cc(O)cc(c3)-c3ccc4c(c3)c(c(-c3ccccc3CCOC)n4C(C)(C)C#N)CC(C)(C)COC(=O)[C@@H]3CCCN(N3)C2=O)C(C)C)C1 [Compound A12] | –
7 | < 5 | CCn1c(-c2cnccc2COC)c2c3cc(ccc31)-c1cc(O)cc(c1)C[C@H](NC(=O)[C@H](C(C)C)N(C)C(=O)[C@H]1CCN(C)C1)C(=O)N1CCC[C@H](N1)C(=O)OCC(C)(C)C2 [Compound A27, (2S)—N-[(8S,14S)-22-ethyl-4-hydroxy-21-[4-(methoxymethyl)pyridin-3-yl]-18,18-dimethyl-9,15-dioxo-16-oxa-10,22,28-triazapentacyclo [18.5.2.1^2,6.1^10,14.0^23,27]nonacosa-1 (26),2,4,6 (29),20,23 (27),24-heptaen-8-yl]-3-methyl-2-{N-methyl-1-[(3S)-1-methylpyrrolidin-3-yl]formamido}butanamide] | –
8 | – | C=CC(=O)N1CC[C@H](C(=O)N(C)[C@H](C(=O)N[C@H]2Cc3cc(O)cc(c3)-c3ccc4c(c3)c(c(-c3ncccc3[C@@H](C)OC)n4CC)CC(C)(C)COC(=O)[C@@H]3CCCN(N3)C2=O)C(C)C)C1 [Compound A29] | EC50 (Homo sapiens, NCI-H358, 4 h): < 5 µM
9 | < 5 | CCn1c(-c2cccnc2COC)c2c3cc(ccc31)-c1cc(O)cc(c1)C[C@H](NC(=O)[C@H](C(C)C)N(C)C(=O)[C@H]1CCNC1)C(=O)N1CCC[C@H](N1)C(=O)OCC(C)(C)C2 [Compound A32] | –
10 | < 5 | CCn1c(-c2cnccc2COC)c2c3cc(ccc31)-c1cc(O)cc(c1)C[C@H](NC(=O)[C@H](C(C)C)N(C)C(=O)[C@H]1CCN(S(=O)(=O)N3CC(N)C3)C1)C(=O)N1CCC[C@H](N1)C(=O)OCC(C)(C)C2 [Compound A35] | –
11 | < 5 | CCn1c(-c2cnccc2COC)c2c3cc(ccc31)-c1cc(O)cc(c1)C[C@H](NC(=O)[C@H](C(C)C)N(C)C(=O)[C@H]1CCN(S(=O)(=O)N3CC(O)C3)C1)C(=O)N1CCC[C@H](N1)C(=O)OCC(C)(C)C2 [Compound A37, (2S)—N-[(8S,14S)-22-ethyl-4-hydroxy-21-[4-(methoxymethyl)pyridin-3-yl]-18,18-dimethyl-9,15-dioxo-16-oxa-10,22,28-triazapentacyclo [18.5.2.1^2,6.1^10,14.0^23,27]nonacosa-1 (26),2,4,6 (29),20,23 (27),24-heptaen-8-yl]-2-{1-[(3S)-1-[(3-hydroxyazetidin-1-yl)sulfonyl]pyrrolidin-3-yl]-N-methylformamido}-3-methylbutanamide] | –
12 | – | C=CC(=O)N1CC[C@H](C(=O)N(C)[C@H](C(=O)N[C@H]2Cc3cc(N)cc(c3)-c3ccc4c(c3)c(c(-c3ccccc3COC)n4CC)CC(C)(C)COC(=O)[C@@H]3CCCN(N3)C2=O)C(C)C)C1 [Compound A42] | EC50 (NCI-H358 cells, 4 hours): < 5 µM
13 | < 5 | CCn1c(-c2cnccc2COC)c2c3cc(ccc31)-c1cc(O)cc(c1)C[C@H](NC(=O)[C@H](C(C)C)N(C)C(=O)CO)C(=O)N1CCC[C@H](N1)C(=O)OCC(C)(C)C2 [Compound A43, (2S)—N-[(8S,14S)-22-ethyl-4-hydroxy-21-[4-(methoxymethyl)pyridin-3-yl]-18,18-dimethyl-9,15-dioxo-16-oxa-10,22,28-triazapentacyclo [18.5.2.1^2,6.1^10,14.0^23,27]nonacosa-1 (26), 2,4,6 (29),20,23 (27),24-heptaen-8-yl]-2-(2-hydroxy-N-methylacetamido)-3-methylbutanamide] | –
14 | < 5 | CCn1c(-c2cnccc2COC)c2c3cc(ccc31)-c1cc(O)cc(c1)C[C@H](NC(=O)[C@H](C(C)C)N1CCCCC1=O)C(=O)N1CCC[C@H](N1)C(=O)OCC(C)(C)C2 [Compound A44] | –
15 | < 5 | CCn1c(-c2cnccc2COC)c2c3cc(ccc31)-c1cc(O)cc(c1)C[C@H](NC(=O)[C@H](C(C)C)N(C)S(C)(=O)=O)C(=O)N1CCC[C@H](N1)C(=O)OCC(C)(C)C2 [Compound A57, (2S)—N-[(8S,14S)-22-ethyl-4-hydroxy-21-[4-(methoxymethyl)pyridin-3-yl]-18,18-dimethyl-9,15-dioxo-16-oxa-10,22,28-triazapentacyclo [18.5.2.1^2,6.1^10,14.0^23,27]nonacosa-1 (26),2,4,6 (29),20,23 (27),24-heptaen-8-yl]-3-methyl-2-(N-methylmethanesulfonamido) butanamide] | –
16 | < 5 | CCn1c(-c2cccnc2[C@H](C)OC)c2c3cc(ccc31)-c1cccc(c1)C[C@H](NC(=O)[C@H](C(C)C)N(C)C(=O)[C@H]1CCN(C(C)=O)C1)C(=O)N1CCC[C@H](N1)C(=O)OCC(C)(C)C2 [Compound A60] | –
17 | < 5 | CCn1c(-c2cnccc2COC)c2c3cc(ccc31)-c1cc(O)cc(c1)C[C@H](NC(=O)[C@H]([C@@H](C)OC)N(C)C(C)=O)C(=O)N1CCC[C@H](N1)C(=O)OCC(C)(C)C2 [Compound A76] | –
18 | – | C=CC(=O)N1CC[C@H](C(=O)N(C)[C@H](C(=O)N[C@H]2Cc3cc(OC(=O)N(C)CC(=O)O)cc(c3)-c3ccc4c(c3)c(c(-c3ccccc3CCOC)n4CC)CC(C)(C)COC(=O)[C@@H]3CCCN(N3)C2=O)C(C)C)C1 [Compound A78] | EC50 (Homo sapiens, NCI-H358, 4 h): < 5 µM
19 | < 5 | CCn1c(-c2cnccc2COC)c2c3cc(ccc31)-c1cc(O)cc(c1)C[C@H](NC(=O)[C@H](C(C)C)N(C)C(=O)[C@@H]1CCOC1)C(=O)N1CCC[C@H](N1)C(=O)OCC(C)(C)C2 [Compound A94] | –
20 | < 5 | CCn1c(-c2cnccc2COC)c2c3cc(ccc31)-c1cc(O)cc(c1)C[C@H](NC(=O)[C@H](C(C)C)N(C)C(=O)OC1CN(C)C1)C(=O)N1CCC[C@H](N1)C(=O)OCC(C)(C)C2 [Compound A101] | –
21 | < 5 | CCn1c(-c2cccnc2[C@H](C)OC)c2c3cc(ccc31)-c1cccc(c1)C[C@H](NC(=O)[C@H](C(C)C)N(C)C(=O)[C@H]1CCN(C(=O)CN)C1)C(=O)N1CCC[C@H](N1)C(=O)OCC(C)(C)C2 [Compound A105] | –
22 | < 5 | CCn1c(-c2cccnc2[C@H](C)OC)c2c3cc(ccc31)-c1csc(n1)C[C@H](NC(=O)[C@H](C(C)C)N(C)C(=O)[C@H]1CCN(C)C1)C(=O)N1CCC[C@H](N1)C(=O)OCC(C)(C)C2 [Compound A108] | –
23 | < 5 | CCn1c(-c2cccnc2[C@H](C)OC)c2c3cc(ccc31)-c1cc(O)cc(c1)C[C@H](NC(=O)[C@H](C(C)C)N(C)C(=O)[C@H]1CCN(CCO)C1)C(=O)N1CCC[C@H](N1)C(=O)OCC(C)(C)C2 [Compound A111] | –
